Data from paper PMC12673918, “Design, Synthesis, and Selective Antiproliferative Activity of Indolizine Derivatives as Microtubule Destabilizers” (Archiv Der Pharmazie, 2025).

Experiments:
[1] = tested on: BT‐20 breast cancer cells; experiment: Cell‐cycle assay by flow cytometry; type: cell-based; conditions: 2.5 µM, 24 h
Description: BT‐20 cells were seeded in 10 cm plates (1.5 × 10⁶ cells/plate) and incubated at 37°C with 5% CO₂ for 24 h. Subsequently, the cells were treated with different compounds at a concentration of 2.5 µM for 24 h. After treatment, the cells were collected by centrifugation and fixed in cold 70% ethanol for 1 h at 4°C. The cells were then washed, collected by centrifugation, and treated with RNase A (100 μg/mL, Sigma‐Aldrich) for 30 min at 37°C, followed by staining with propidium iodide (50 μg/mL) for 15 min at 37°C. Finally, the percentages of cells in each phase of the cell cycle were determined using FACSCalibur flow cytometry (BD Biosciences—San Jose, CA, USA). Cell‐cycle distribution was analyzed using ModFit LT V3.3 software.

[2] = tested on: BT‐20 breast cancer cells; experiment: Western blot of cell‐cycle, apoptosis and signaling proteins; type: cell-based; conditions: 2.5 µM for 24 h
Description: Cells were seeded in 10 cm plates (1.5 × 10⁶ cells/plate) and incubated for 24 h. Subsequently, the cells were treated with the compounds at a concentration of 2.5 µM for 24 h. After treatment, the cells were collected, and the proteins were isolated. A total of 30 µg of proteins were separated electrophoretically on a sodium dodecyl sulfate‐polyacrylamide gel (SDS‐PAGE) and transferred onto a polyvinylidene fluoride (PVDF) membrane (GE Healthcare) using the PowerBlotter Station (Invitrogen) according to the manufacturer's recommendations. After transfer, the membrane was blocked with a 5% (w/v) nonfat milk solution in TBS‐T (0.1 M Tris (pH 7.5), 0.9% NaCl, 0.1% Tween‐20) at room temperature for 1 h under gentle agitation. The membrane was then washed with TBS‐T and incubated with primary antibodies under agitation for approximately 16 h at 4°C. The primary antibodies used were: c‐Myc (#5605), ß‐tubulin (#2128), p21 (#2947), Cyclin D1 (#2978), Bcl‐2 (#15071), p‐AKT ser473 (#4058), and GAPDH (#2118) (Cell Signaling Technology). After primary antibody incubation, the membranes were washed with TBS‐T and incubated at room temperature for 1 h in a TBS‐T solution containing 5% nonfat milk and the HRP‐conjugated secondary antibody. Following the washes with TBS‐T, the membranes were incubated with the SuperSignal West Dura substrate (Thermo Scientific). Immunodetection was analyzed using the ChemiDoc imaging system (Bio‐Rad).

| Structure (SMILES) | cell‐cycle distribution [1] | Bcl‐2 levels [2] | cyclin D1 levels [2] | p21 expression [2] |
| --- | --- | --- | --- | --- |
| CCCc1cn2cc(OC)ccc2c1C(=O)c1cc(OC)c(OC)c(OC)c1 [Compound 8h, (6‐methoxy‐2‐propylindolizin‐1‐yl)(3,4,5‐trimethoxyphenyl)methanone] | significant accumulation of cells in the G2/M phase | decrease | markedly decreased | upregulated |
| COc1ccc2c(C(=O)c3cc(OC)c(OC)c(OC)c3)c(C(F)(F)F)cn2c1 [Compound 8e, [6‐methoxy‐2‐(trifluoromethyl)indolizin‐1‐yl](3,4,5‐trimethoxyphenyl)methanone] | significant accumulation of cells in the G2/M phase | decrease | markedly decreased | upregulated |
